Tests used:
[1] = system: A549 (lung) and HCT116 (CRC); test: continuous 48 h exposure, lung and CRC cells
cancer patients = test: cancer case reports; format: in vivo, human
Method: person diagnosed with stage 3-stomach cancer prognosis 6 months to live on Mar. […] 28, 2007. In addition to Immediate release naltrexone patients received chemotherapy and kidney stents inserted. […].
Person diagnosed with stage 4 pleural mesothelioma in December of 2008 and patients after consult with two other doctors it was determined due to the state of the diseases and other health issues to watch the tumors and not do chemotherapy. Prognosis was 6 to 12 months. Patient started 4.5 mg nightly and received on other treatment but did change diet. […] […].
A person diagnosed with stage 4-colon cancer, 2007 which had spread to their lungs and liver, they removed 40% of their colon and began a round of chemotherapy and three surgeries removed 40% of their colon, half is their right lung and 75% of their liver. During the next 18 months received 47 weeks of chemotherapy (a combination of 4 chemo drugs at once). […].
person was diagnosed with stage 3 prostate cancer which they were originally treated for 5 years before began 3 rounds of Docetaxel (Taxotere®). They were prescribed 4.5 mg of […]

Fibromyalgia patient = test: Fibromyalgia and Epstein Barr case report; format: in vivo, human
Description: A person was diagnosed in 1998 Fibromyalgia and Epstein Barr, had to quit work, in pain and very depressed. Various treatments over the years for pain prescribed and other problems with the disease. […]

MS patients [2] = test: multiple sclerosis case reports; format: in vivo, human
[3] = system: patients with active Crohn's disease; test: 12-week study of 4.5 mg naltrexone/day in active Crohn's disease (17 patients); format: in vivo, human
Method: . Infliximab was not allowed for a minimum of 8 weeks prior to study initiation. Other therapy for Crohn's disease that was at a stable dose for 4 weeks prior to enrollment was continued at the same doses. Patients completed the inflammatory bowel disease questionnaire (IBDQ) and the short-form (SF-36) quality of life surveys and CDAI scores were assessed pretreatment, every 4 weeks on therapy and 4 weeks after completion of the study drug. Drug was administered by mouth each evening for a 12-week period. RESULTS: Seventeen patients with a mean CDAI score of 356+/−27 were enrolled.

MS patients [4] = test: retrospective chart review of MS patients receiving LDN; format: in vivo, human
Description: This study investigated the safety, tolerability, and benefits (fatigue, reduction) of LDN in patients with MS. It reviewed the number of patients who stopped taking LDN and if there were specific reasons for stopping the LDN. The frequency and variety of side effects that were specific to LDN use are reported. […] 1, 2005 and May 31, 2012. There were 215 MS patients having exposure to LDN during the time of this study. […] In addition to the assessment we review Brain MRIs and Spinal Cord MRIs that were obtained as part of the clinical status of the patient and standard of care.
It reviewed the number of patients who stopped taking IMMEDIATE RELEASE NALTREXONE (LDN) and if there were specific reasons for stopping the IMMEDIATE RELEASE NALTREXONE (LDN). […] 1, 2005 and May 31, 2012. […]. In addition to the assessment we review Brain MRIs and Spinal Cord MRIs that were obtained as part of the clinical status of the patient and standard of care. […].

AIDS = settings: 3.0 mg daily at bedtime, 12 weeks, cited from earlier work
[5] = system: Rheumatoid Arthritis patients; test: rheumatoid arthritis case reports; format: in vivo, human
Method: A person diagnosed with Rheumatoid Arthritis in 2006 and was being treated with methotrexate and plaquenil but patients continued with pain and fatigue. […]
A person diagnosed 5 years ago with RA was treated with Methotrexate 25 mg per week and Remicade 300 U every 6 weeks, the fatigue and pain continued, along with the inflammation and general weakness. Sleep disturbed nightly due to pain in my shoulders and hips. Patient felt their life was not acceptable and none of the immunosuppression drugs were helping. […] Within two weeks patient stopped even ibuprophen. Rheumatoid factor has gone from 127 to 66 in 4 months and has stayed stable. […] Occasionally patient has pain but it is easily controlled with a normal dosage of ibuprophen.
A person, diagnosed with RA in 1999 stayed very active until 2005 on a combination of Methotrexate and Prednisone but was have difficulty maintaining their business due to fatigue and severe joint pain with deformity of their hands and elbows. Patient was told to increase their does and start a second immunomodulating drug. Patient no longer wanted to continue with immunosuppression drug or steroids due to the side effects. […]; they have no pain that can't be handled with aspirin.

[6] = system: children with moderate to severe Crohn's disease; test: pilot clinical trial in children with moderate to severe Crohn's disease; format: in vivo, human; parameters: patients in remission (PCDAI score≤10): unit not given here
Method: A pilot clinical trial was conducted in children with moderate to severe Crohn's disease. Fourteen subjects with a mean age of 12.3 years (range, 8 to 17 y) were enrolled. […]. Safety and toxicity were monitored by physical examinations and blood chemistries. Clinical activity was assessed by the Pediatric Crohn's Disease Activity Index (PCDAI) and Quality of life was monitored by the Impact III survey. […] […].

[7] = system: diabetic neuropathy patient; test: diabetic neuropathy case report; format: in vivo, human
Description: person, diagnosed with diabetic neuropathy for the last six years was prescribed one or two tablets every four to six hours as needed for pain. Patient takes between 4 to 8 tablets a day.

[8] = 0.1 mg/kg orally, end of the study

O=C1CC[C@@]2(O)[C@H]3Cc4ccc(O)c5c4[C@@]2(CCN3CC2CC2)[C@H]1O5 [Immediate release naltrexone, naltrexone]
effect on A549 and HCT116 [1]: no effect | tolerance of chemotherapy, person, stage 4-colon cancer (cancer patients; 4.5 mg nightly from June of 2007 with chemotherapy): able to complete the entire protocol without any major side effects at all | tolerance of chemotherapy, person, stage 3 prostate cancer (cancer patients; 4.5 mg nightly with 3 rounds of Docetaxel): able to withstand the chemotherapy and their blood work stayed stable throughout the protocol | CAT scans, person, stage 4 pleural mesothelioma (cancer patients; 4.5 mg nightly, no chemotherapy, February 2009 and 2010): no measurable growth of tumors | disease course, person, stage 4-colon cancer (cancer patients; 4.5 mg nightly, scans every six months): continued cancer free until June of 2015 | CT scan, person, stage 3-stomach cancer (cancer patients; 4.5 mg with chemotherapy, September 2007): tumors shrunk in half | disease status, person, stage 3-stomach cancer (cancer patients; 4.5 mg, December of 2007): in remission and stable | CT scan, person, stage 3-stomach cancer (cancer patients; 4.5 mg, March 2008): tumors had shrunk in half | scan, person, stage 3-stomach cancer (cancer patients; 4.5 mg, March of 2009): tumors were stable | decrease of pain level, person, Fibromyalgia and Epstein Barr (Fibromyalgia patient; 0.5 mg in 2004 increased to 3 mg): 90% | antidepressant use, person, Fibromyalgia (Fibromyalgia patient; 0.5 mg increased to 3 mg): no longer need to take anti-depressants | first three months, person, Secondary Progressive MS (MS patients [2]; 1.5 mg at bedtime increasing to 3 mg from July of 2005): no real improvement in the first three months accept no flair of MS | disease course, person, relapsing remitting MS (MS patients [2]; 1.5 mg increasing to 4.5 mg nightly with progesterone, estriol, Cortef): back at work for 5 years without an exacerbation | MRI, person, secondary-progressive multiple sclerosis (SPMS) (MS patients [2]; 1.5 mg then 3 mg from July of 2009, January of 2011): MRI showed reduced plaque and lesion size | disease course, person, fast deteriorating M.S. (MS patients [2]; 1.5 mg, 3 mg, then 4.5 mg for seven months): the disease has stabilized and the progressive deterioration has stopped | disease course, person, M.S. of 35 years (MS patients [2]; 3 mg for 30 days then 4.5 mg at bedtime, over three months): regained their ability to see and walk and their cognitive ability improved as well | mobility, person four, Relapsing Remitting MS, wheelchair bound (MS patients [2]; 3 mg nightly from July 2004): walking again with a cane for assistance within 10 days | relapses, person two, Relapsing Remitting MS (MS patients [2]; 4.5 mg at bedtime since 2002): has not had a one relapse | side effects, person four, Relapsing Remitting MS (MS patients [2]; 4.5 mg nightly from August of 2004): minimal side effects some insomnia | relapses, person four, Relapsing Remitting MS (MS patients [2]; 4.5 mg nightly, last update 2010): no relapses | MRI, person two, Relapsing Remitting MS (MS patients [2]; 4.5 mg, over the last 8 years): no progression of the disease | mobility, person, Secondary Progressive MS (MS patients [2]; months 3 to 6, later 4.5 mg): upgraded from wheelchair to cane | CDAI scores ([3]; 4.5 mg/day by mouth each evening, 12 weeks, baseline mean 356+/−27, P=0.01): decreased significantly | laboratory abnormalities ([3]; 4.5 mg/day, 12 weeks): No laboratory abnormalities were noted | patients with response to therapy ([3]; 4.5 mg/day, 12 weeks): Eighty-nine | patients achieving remission ([3]; 4.5 mg/day, 12 weeks, P<0.001): 67% | CDAI scores after end of therapy ([3]; 4 weeks after completing therapy): remained lower than baseline | quality of life surveys (IBDQ, SF-36) ([3]; compared with baseline): Improvement was recorded in both quality of life surveys | quality of life over a long period of time (MS patients [4]; 215 MS patients exposed): improvement in quality of life | Brain MRI scans showing improvement (MS patients [4]; of 215 patients): 14 MRI scans | Brain MRI scans slightly worse (MS patients [4]; of 215 patients, new but inactive lesion(s)): 28 MRI scans | lymphocyte mitogen responses (AIDS): declined on placebo and not on Immediate release naltrexone | pathologically elevated levels of acid-labile alpha interferon (AIDS): declined significantly | incidence of opportunistic infections (patients) (AIDS; placebo 5 out of 16 (31%)): 0 of the 22 | medication use, person, Rheumatoid Arthritis ([5]; 1.5 mg titrated up to 4.5 mg from April of 2009): Successfully discontinued methotrexate March of 2010 and then discontinued plaquenil in October of 2010 | fatigue, person, RA ([5]; 4.5 mg at bedtime): Fatigue is gone | Rheumatoid factor, person, RA ([5]; 4.5 mg at bedtime, from 127 in 4 months): 66 | medication use, person, RA ([5]; 4.5 mg at bedtime, within 7 days): stooped all traditional RA medications | disease course, person, RA ([5]; 4.5 mg with diet, supplements, hormones etc., 7 years later): RA has not advanced | safety and tolerability ([6]; 0.1 mg/kg orally): well tolerated without any serious adverse events | patients improved with mild disease activity (decrease in PCDAI score by at least 10 points) [6, 8]: 67% | patients in remission (PCDAI score≤10) [6, 8]: Twenty-five | Systemic and social quality of life (Impact III) ([6]; P=0.035): improved | additional benefits, diabetic neuropathy ([7]; 4.5 mg): resolutions of RLS | pain medication use, diabetic neuropathy ([7]; 4.5 mg from March of 2015, within 3 days): cut down the number of pills in half | pain medication use, diabetic neuropathy ([7]; 4.5 mg, within 8 weeks): stopped all pain medication

— patent US11419865B2, “Method for inducing a sustained immune response” (Cytocom Inc., priority 2016, dated 2022)
